Source: patent publication US20220411448A1, “CHROMENE-4-ONE DERIVATIVES AS BRAIN-DERIVED NEUROTROPHIC FACTOR (BDNF) MIMETICS” (FLORATEK PHARMA AG, priority 2019, published 2022)

Legend:
TNF-α = assay: LPS stimulation of BV-2 microglia: TNF-α; format: cell-based, murine; settings: between 0.3 and 3 μM, BV2, LPS 500 ng/ml, 24 h
Experimental: (§1) The murine microglial cell line BV-2 was grown in DMEM medium supplemented with 10% FCS, 1% penicillin/streptomycin and 2 mM L-glutamine (culture medium). For LPS stimulation assay, 10000 BV-2 cells per well (uncoated 96 well plates) were plated and after 24 hours, medium was changed to serum-free treatment medium (DMEM, 2 mM L-glutamine) and cells were maintained in treatment medium for the remaining culture period. 1 h after changing cells to treatment medium, the test items were added 1 hour before LPS stimulation (Sigma-Aldrich; L6529; 1 mg/ml stock in ddH2O, final concentration in well: 500 ng/ml (dilutions in medium)). Cells treated with vehicle, cells treated with LPS alone, as well as cells treated with LPS plus reference dexamethasone at 10 μM item served as controls.
(§2) Following 24 h of stimulation, cell supernatants were collected for the NO, and cytokine measurements. Levels of 2 cytokines (TNF-α, IL-6) were measured by an immunosorbent assay (U-PLEX Custom […] Cytokine, Mesoscale Discovery) according to the instructions of the manufacturer and evaluated in comparison to calibration curves provided in the kit. […] Absorbance was measured at 570 nm. Nitrosative stress was evaluated in the study samples in comparison to a NaNO2 standard curve. […]

[1] = tested on: primary cultures of cortical neurons; assay: Primary neuronal culture viability (MTT assay); format: cell-based, mouse; settings: primary neuron culture, 24 hours
Experimental: For neuronal cultures, primary cultures of cortical neurons were prepared from embryonic day 17 (E17) OF1 mice embryos (Charles River Laboratories) as previously described [Allaman I., Pellerin L., Magistretti P. J. (2004) Glucocorticoids modulate neurotransmitter-induced glycogen metabolism in cultured cortical astrocytes. J. Neurochem. 88, 900-908] or from C57BL/6JRccHsd mice at E18. Animals were sacrificed and embryos were dissected in Calcium and Magnesium free Hanks Balanced Salt Solution (CMF-HBSS) containing 15 mM HEPES and 10 mM NaHCO3, pH 7.2. Embryos were decapitated, skin and skull gently removed and hemispheres were separated. […]
The MTT assay was conducted according to manufacturer's instructions (Invitrogen/Molecular Probes, Eugene, Oreg.) and was measured using a plate reader at an absorbance wavelength of 570 nm. Cell survival rate was expressed either as the absorbance values or as optical density (OD), with values calculated as % of controls.
Primary neuronal culture viability in the presence of Compound A/SND118 Primary neuron culture was prepared as described and treated with Compound A/SND118 at various concentrations for 24 hours. Cellular viability was measured using MTT assay as described.

[2] = Metabolic stability in human plasma; format: in vitro ADME; settings: 1 μM
Experimental: The compounds were incubated with plasma, and the collected samples were analyzed by UPLC/HR-MS to measure stability of the compounds.
Sample type: plasma; Species: CD1-mouse (male), human (mixed gender); Time points: 0, 20, 40, 60, 120 min;
Spiking solvent: 50% DMSO ( 1/100 to incubation); Quenching solvent: 2-fold volume of 100% ACN; Control: propanthelin bromide (human, mouse)
The study compounds were incubated with plasma as specified above. The collected samples were stored at −20 C until thawed at room temperature, centrifuged and analyzed using UPLC/PDA with high resolution mass spectrometry (QE-Orbitrap-MS on DDI mode) to monitor substrate depletion and metabolite formation. The analytical method was optimised by using the parent compounds for optimum chromatographic properties (peak shape and retention) and mass spectrometric ionisation. Disappearance was based on relative LC/MS peak areas (0 min=100%) and will be used to calculate half-lives.

IL-6 = assay: LPS stimulation of BV-2 microglia: IL-6; format: cell-based, murine; settings: between 0.3 and 3 μM, BV2, LPS 500 ng/ml, 24 h
Experimental: as §1, §2

[3] = tested on: organotypic hippocampal brain slices with IAA lesion; assay: Organotypic brain slices, iodoacetic acid injury: mitochondrial membrane potential (TMRM); format: cell-based, mouse; settings: SND118 10 and 30 μM; SND124 30 μM; IAA 250 μM for 110 min
Experimental: Preparation of the organotypic brain slices were performed by decapitation of the P9/P10 mouse pups, removing skin and skull and immersing brains in slicing medium (Opti-MEM 1, […]). Brains were hemisected and hippocampi were isolated. Hippocampi were placed on the cutting disc of a McIlwain Tissue Chopper. […] hippocampal slices were chopped transversely. A number of 4 slices per hippocampus were placed on porous (0.4 μM) transparent membrane inserts (Millipore) and incubated for 1 h on ice in HBSS containing 10 mM glucose. Afterwards inserts were transferred to fresh 24-well plates containing 250-300 μl culture medium (50% MEM/EBSS, 25% horse serum, 25% CMF-HBSS, 25 mM glucose, 0.5% pen/strep). Slices were maintained at 37° C. and 5% CO2.
On DV15, brain slices were pretreated with SND derivatives test compounds and the reference 7,8DHF at various concentrations (between […]) for 30 min, followed by the addition of iodoacetic acid (IAA) at 250 μM for 110 min, when cell survival, MMP and toxicity were measured.
Cell survival was measured by the MTT assay. […] Fluorescence was measured with a plate-reader (Cytation 5) using wavelengths of excitation and emission of 548 and 574 nm, respectively (area scan). Values were calculated as percent of control values (vehicle control). Toxicity of the treatment was measured by LDH. […]

## O=c1cc(-c2ccc(CCCC[P+](c3ccccc3)(c3ccccc3)c3ccccc3)cc2)oc2c(O)c(O)ccc12 [SND118, 4-[4-(7,8-dihydroxy-4-oxo-chromen-2-yl)phenyl]butyltriphenylphosphonium bromide]
TNF-α
  level of TNF-α in response to LPS stimulation: significantly decreased
[1]
  Cellular viability (MTT): concentration up to which not toxic: ≤ 10 µM
[2]
  T1/2 plasma Human: 789 min
IL-6
  level of IL-6 in response to LPS stimulation: significantly decreased
[3]
  mitochondria function (MMP, TMRM) after IAA lesion: rescued mitochondria function
